This note sets out measurements from PMC5473904, “Epigenetic and antitumor effects of platinum(IV)-octanoato conjugates” (Scientific Reports, 2017).

The subject of data set [1] is HCT-116 cells. The data set can be described thus: Cellular platinum accumulation/distribution by ICP-MS. The data set is classed as cell-based, human. Particulars: for Total cellular platinum accumulation: HCT-116, 24 h exposure, 0.35 µM. As for the experimental part: (§1) Cellular concentrations of platinum were determined by inductively coupled plasma mass spectrometry (ICP-MS) after 24 h of exposure to the complexes at the concentration of 0.35 µM.
(§2) Cellular uptake studies were also carried out to measure the accumulation of platinum species in cytosol and nucleus. […] The platinum levels in each pool were measured by ICP-MS. The extent of accumulation of both OA conjugated Pt(IV) prodrugs into the cytosol and nucleus fractions was markedly higher than that of cisplatin or Pt(IV)diAc.
(§3) The cells were seeded in 150 cm^2 culture flasks at a density 1 × 10^7 cells/flask (67 000 cells/cm^2). After 48-h incubation, the cells were treated with the compounds (0.35 μM) for 24 h. The attached cells were washed twice with PBS (4 °C). Seventy-five percent of cells were used for analysis of platinum bound to DNA, remaining 25% were used for estimations of cellular accumulation of platinum. Cell pellets were digested by a high-pressure microwave digestion system (MARS5, CEM) with HCl to give a fully homogenized solution, and final platinum content was determined by ICP-MS. The analysis with the aid of ICP-MS was performed using Agilent 7500 (Agilent, Japan) or Thermo Optek X Series.
(§4) A2780 cells were seeded in 100 mm tissue culture dishes (3 × 10^6 cells) and grown for 48 h to 80–90% confluence. Cells were harvested after 24 h of treatment. Concretely, the dishes were washed two times with ice-cold PBS and the cells scraped into tubes and centrifuged for 10 min at 0 °C (200 g). The pellets were resuspended in the lysis buffer [Tris·HCl (10 mM, pH 8.0), KCl (60 mM), EDTA (1.2 mM), DTT (1 mM), phenylmethanesulfonyl fluoride (PMSF, 0.1 mM), NP-40 (0.04%)] for 10 min on ice and centrifuged for 4 min at 0 °C (800 g). Cytosolic fraction was separated for platinum ICP-MS analysis, and protein concentration was determined by Bradford assay. The pellets were rinsed with the above lysis buffer without PMSF and NP-40 and centrifuged for another 4 min at 0 °C (300 g). The pellets were resuspended in 50 µL nuclear extraction buffer [Tris·HCl (20 mM, pH 8.0), NaCl (420 mM), MgCl2 (0.7 mM), EDTA (0.25 mM), glycerol (25%)] and incubated for 30 min at 4 °C, continuously mixed on end-over-end roller, and then centrifuged for 15 min at 0 °C (13000 g). Protein concentration in nuclear extracts was determined by the Bradford assay, and stored at −80 °C until analysis.

For data set [2], the system named is A2780 cells. The description is as above. Particulars: for Platinum in cytosol / Platinum in nucleus: A2780, 24 h; for Platinum in cytosol / Platinum in nucleus / Total cellular platinum accumulation: 0.35 µM; for Total cellular platinum accumulation: A2780, 24 h exposure. The data set is classed as cell-based, human. As for the experimental part:
as §1, §2, §3, §4

The subject of data set [3] is LNCaP human prostate adenocarcinoma cells. As to the kind of experiment: MTT cytotoxicity, 72 h. The data set is classed as cell-based. Particulars: platinum complexes.
Data set [4] relates to HSF human primary skin fibroblasts. The data set can be described thus: MTT cytotoxicity, 72 h. The data set is classed as cell-based. Particulars: platinum complexes.
Data set [5] has as its system MRC-5 (PD30) human fetal lung fibroblasts. As to the kind of experiment: MTT cytotoxicity, 72 h. Particulars: platinum complexes. Type of data set: cell-based.
Data set [6] has as its system Lewis lung carcinoma (LLC). The data set can be described thus: In vivo antitumor activity in Lewis lung carcinoma. Particulars: LLC in C57BL mice; for Average tumor weight (mean ± SD): 20 mg kg^−1 daily orally day 7–14, day 15; for Inhibition of tumor growth: 20 mg kg^−1 daily orally day 7–14, day 15, referred to control animals. As for the experimental part: Xenograft LLC tumors were grown in C57BL mice that were subsequently treated with […] of either Pt(IV) complex. Pt(IV) prodrugs were administered by oral gavage by taking advantage of their excellent stability, enabling in vivo oral formulation making platinum therapy safer lessening side effects and partially overcoming resistance to platinum(II) drugs, [35]. The schedule of Pt(IV) prodrug administration in vivo was initially determined by assessing the total dose that could be injected without undue toxicity in nontumor-bearing C57BL mice. From day 7 after tumor inoculation, when tumors became visible, tumor-bearing mice received daily doses of the Pt(IV) derivatives (20 mg kg^−1, by oral gavage).
The LLC cell line was purchased from ECACC, United Kingdom. The LLC cell line was maintained in DMEM (Euroclone) supplemented with 10% heat-inactivated fetal bovine serum (FBS; Euroclone), 10 mM L-glutamine, 100 U mL^−1 penicillin, and 100 μg mL^−1 streptomycin in a 5% CO2 air incubator at 37 °C. The LLC was implanted intramuscularly (im) as a 2 × 10^6 cell inoculum into the right hind leg of 8-week old male and female C57BL mice (24 ± 3 g body weight). […] At day 15, animals were sacrificed, the legs were amputated at the proximal end of the femur, and the inhibition of tumor growth was determined according to the difference in weight of the tumor-bearing leg, and the healthy leg of the animals expressed as a percentage referred to the control animals. Body weight was measured every two days and was taken as a parameter for systemic toxicity. All the values are the means ± SD of not less than three measurements.

Regarding `N.N.[Cl][Pt][Cl]` [cisplatin, reference compound], the “Total cellular platinum accumulation” value in data set [1] is reported as 0.9 ± 0.1 ng Pt/10^6 cells; in data set [2], 0.8 ± 0.2 ng Pt/10^6 cells. In data set [2], this molecule came in with a Platinum in cytosol of 5.5 ± 0.9 pg Pt/µg protein. In data set [2], this molecule showed a Platinum in nucleus of 3.0 ± 0.7 pg Pt/µg protein. Also, the results for the IC50 in data set [3], in data set [4] and in data set [5] were 8.54 ± 1.78 µM, 69 ± 0.87 µM and 10.6 ± 0.38 µM, respectively.

As to `CCCCCCCC(=O)[O][Pt]([NH2])([NH2])([Cl])([Cl])[O]C(=O)CCCCCCC` [Pt(IV)diOA, cis, cis, trans-[Pt(IV)(NH3)2Cl2(OA)2]], the figures for the “Total cellular platinum accumulation” value in data set [1] and in data set [2] were 29.2 ± 0.3 ng Pt/10^6 cells and 12.9 ± 0.3 ng Pt/10^6 cells, respectively. The “Increase of cellular accumulation vs. cisplatin” value in data set [1] (HCT-116, Fig. 2B) stood at 34 x; in data set [2] (A2780, Fig. 2A), 16 x. Besides, the “Increase of cellular accumulation vs. Pt(IV)diAc” value in data set [1] (HCT-116, Fig. 2D) is given as 153 x; in data set [2] (A2780, Fig. 2C), 29 x. Besides, the Platinum in cytosol in data set [2] came out at 138 ± 12 pg Pt/µg protein. The Platinum in nucleus in data set [2] is reported as 173 ± 15 pg Pt/µg protein. Besides, the IC50 in data set [3] stood at 0.052 ± 0.005 µM; in data set [4] it was 0.077 ± 0.001 µM; in data set [5] it was 0.052 ± 0.003 µM. Further, the “Average tumor weight (mean ± SD)” value in data set [6] amounted to 0.025 ± 0.03 g. In addition, the “Inhibition of tumor growth” value in data set [6] is 95%.

Turning to `CCCC(CCC)C(=O)[O][Pt]([NH2])([NH2])([Cl])([Cl])[O]C(=O)C(CCC)CCC` [Pt(IV)diVPA, cis, cis, trans-[Pt(IV)(NH3)2Cl2(VPA)2]], in data set [6], the “Average tumor weight (mean ± SD)” value turned out to be 0.174 ± 0.08 g and the “Inhibition of tumor growth” value came out at 68%.

Regarding `CC(=O)[O][Pt]([NH2])([NH2])([Cl])([Cl])[O]C(C)=O` [Pt(IV)diAc, cis, cis, trans-[Pt(IV)(NH3)2Cl2(Ac)2]], the “Total cellular platinum accumulation” value in data set [1] was 0.19 ± 0.04 ng Pt/10^6 cells. In data set [2], the Platinum in cytosol worked out at 3.0 ± 0.4 pg Pt/µg protein, the Platinum in nucleus amounted to 3.0 ± 0.5 pg Pt/µg protein and the “Total cellular platinum accumulation” value is on record as 0.45 ± 0.09 ng Pt/10^6 cells.
